Our source for the IC50 and EC50 values is patent publication US12357603B2, “Acyl sulfonamides for treating cancer” (Bayer Aktiengesellschaft, priority 2019, dated 2025).

Assay [1] concerns ESR1 transcription (luciferase signal in MVLN cells). As to the kind of experiment: Repression of ESR1 transcription, luciferase reporter in MVLN cells. The following applies: inhibition of luciferase signal in MVLN cells, arithmetic mean. It is filed as cell-based. An excerpt:
Repression of ESR1 Transcription Upon Treatment of Cells with Compounds
KAT6A controls transcription of the ESR1 gene in breast cancer cells. Compound treatment that interferes with this mechanism was quantified using MVLN cells. These cells constitutively express the ER and are stably transfected with the luciferase (LUC) reporter gene and the corresponding hormone responsive element derived from the 5′-flanking region of the Xenopus Vitellogenin A2 gene (Pons et al., 1990, Demirpense et al., 1993, Joyeux et al., 1993). The repressive effect on ERα transcription activity of a test chemical is directly related to the luciferase measured in the lysate of treated MVLN cells.
Each sample was prepared as duplicate and rim wells were excluded. For luciferase signal determination 100 μl of a 1:1 mixture of Steadylite plus (Perkin Elmer; 6016759) and assay medium was added after 24 h for 15 minutes and measured in Victor X3 (Perkin Elmer). To exclude any effects caused by cell loss during the treatment, cell density was determined using Alamar Blue (Invitrogen; DAL1100). Prior to the luciferase measurement 10 μl Alamar Blue were added to each well and the plates were incubated for 2 h in the incubator. Then fluorescence was measured with Victor X3 (Perkin Elmer) at 530 nm/590 nm.
On the technique in general: Reporter assays use an easily measured gene product as a stand-in for the process of interest.

A further assay has as its system ZR-75-1 cells. Kind of assay: Proliferation assay ZR-75-1 (Alamar Blue, 144 h). It is filed as cell-based. The following applies: arithmetic mean, read-out: ZR75-1 proliferation assay, EC50 [M] (arithmetic mean). An excerpt: Proliferation Assays for Compound Characterization
For compound characterization cell survival assays were routinely run in two cell lines. ZR-75-1 is a breast carcinoma cell line containing a focal KAT6A amplification and high KAT6A protein expression. Proliferation of this cell line is inhibited upon treatment with KAT6A inhibitors. As a negative control cell line MDA-MB-436 were used. These cells carry a […] deletion of the KAT6A gene, have a low KAT6A protein expression and are not growth inhibited upon treatment with KAT6A inhibitors.
For measurements cell lines were plated at the below indicated concentration per […] in 96-well plates in a humidified incubator at 37° C. and 5% CO2.
ZR-75-1 (ATCC, CRL-1500; breast carcinoma); 3000 cells per well; culture medium: RPMI 1640 (Biochrom #FG 1215) medium containing 2.5% FBS (Biochrom #S0615).
24 hours later, cells were treated with compounds (stock solution, 10 mM in DMSO) using the HP D300 Digital Dispenser in a concentration range of 2.0×10E-5 M to 2.0×10E-9 M in a single-dot curve with 9 dilutions and a DMSO concentration of 0.2%. Each sample was prepared as triplicate and rim wells were excluded. Plates were incubated at 37° C. and 5% CO2 for 144 h. Cell viability was measured by adding 10 μL of Alamar Blue Reagent (Invitrogen #DAL 1100) and plates were incubated for 2 h at 37° C. and 5% CO2. Fluorescence was measured at 590 nm wavelength with a Tecan Spark or Victor X3 MTP-Reader (PerkinElmer).
For orientation: Alamar Blue is a resazurin reagent that responds to reducing activity.

The target of assay [2] is Recombinant human His-tagged Kat6a protein (amino acids 194-810) (Homo sapiens (Human), UniProt Q92794). Kind of assay: Kat6a activity assay (TR-FRET, acetylation of biotinylated Histone-H4-derived peptide). It is filed as biochemical. The following applies: 60 mins at 22° C., read-out: KAT6A-DPF/HAT domain IC50 [mol/l] (arithmetic mean). An excerpt:
Kat6a inhibitory activities of the compounds described in the present invention were quantified using a Fluorescence Resonance Energy Transfer (TR-FRET) assay which measures acetylation of a synthetic, biotinylated Histone-H4-derived peptide by the enzyme.
Recombinant human His-tagged Kat6a protein (amino acids 194-810), was purified in-house from Baculovirus-infected insect cells (Sf9). Histone H4 peptide (amino acids 1-24, […]-VLRD-K(Btn)-amide), which was used as substrate, was synthesized by Biosyntan GmbH, Berlin, Germany. Acetyl Coenzyme A was purchased from Sigma-Aldrich (#A-2056).
Kat6a was incubated for 60 mins at 22° C. in the presence of different concentrations of test substances (0 μM, and within the range 0.01-20 μM) in assay buffer [25 mM Tris/HCl pH 8, 1 mM EGTA, 2.5 mM Glutathion, 0.02% Chicken Albumin, 0.05% Pluronic F127, 25 mM NaCl, 220 nM H4 peptide and 600 nM Acetyl Coenzym A].
The reaction was stopped by addition of Detection Solution (25 mM HEPES pH 7.5, 0.1% BSA, 22 nM SAXL665 (Cisbio #610SAXLE), 100 μM Anacardic Acid (Enzo #ALX-270-381), 1 nM Anti-Histone H4 (ACETYL K8) Antibody (ABCAM #AB15823) and 0.5 nM Anti-Rabbit IgG Eu (Perkin Elmer #AD0083).
The fluorescence emission at 620 nm and 665 nm after excitation at 330-350 nm was measured in a TR-FRET measuring instrument, for instance a Rubystar or a Pherastar (both from BMG Lab Technologies, Offenburg, Germany) or a Viewlux (Perkin-Elmer). The ratio of the emission at 665 nm and at […] was used as indicator of the amount of acetylated peptide.
The resulting data (ratio) were normalized, taking 0% inhibition as the mean value of control measurements where all reagents were included. In this case 50 nl DMSO were used instead of compounds. […] IC50 values were determined by regression analysis based on a 4 parameter equation (minimum, maximum, ICM, Hill; Y=Max+(Min−Max)/(1+(X/ICso) Hill) using the Screener Software (Genedata).
Table 5 depicts the IC50 values of selected examples in biochemical KAT6A and KAT6B3 assays.
A general note: In TR-FRET formats the signal depends on donor and acceptor labels being close together.

Where two headings read alike, the source gives them in different places.

Chain of Recombinant human His-tagged Kat6a protein (amino acids 194-810) (Q92794 194-810): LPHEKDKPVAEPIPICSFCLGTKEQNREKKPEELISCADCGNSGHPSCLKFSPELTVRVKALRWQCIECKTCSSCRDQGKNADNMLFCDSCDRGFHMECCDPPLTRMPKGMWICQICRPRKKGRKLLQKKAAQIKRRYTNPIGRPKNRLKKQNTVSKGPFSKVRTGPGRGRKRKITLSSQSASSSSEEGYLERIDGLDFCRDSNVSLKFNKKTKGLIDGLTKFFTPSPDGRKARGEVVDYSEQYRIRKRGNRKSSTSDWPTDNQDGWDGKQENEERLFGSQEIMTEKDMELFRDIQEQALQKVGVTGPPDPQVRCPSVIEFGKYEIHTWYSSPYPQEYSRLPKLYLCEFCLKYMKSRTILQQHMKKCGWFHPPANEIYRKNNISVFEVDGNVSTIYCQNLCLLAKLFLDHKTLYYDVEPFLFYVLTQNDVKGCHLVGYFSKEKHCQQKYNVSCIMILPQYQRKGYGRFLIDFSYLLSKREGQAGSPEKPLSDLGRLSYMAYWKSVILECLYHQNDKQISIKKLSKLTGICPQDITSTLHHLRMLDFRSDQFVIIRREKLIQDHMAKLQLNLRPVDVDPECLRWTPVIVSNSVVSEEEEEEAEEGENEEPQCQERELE

For the compound `Cc1cnc(Cl)c(S(=O)(=O)NC(=O)c2cc3ccc(N(C)C)cc3o2)c1` [Example 154], the IC50 in assay [1] (Homo sapiens, MVLN) is 11.5 µM; in assay [2], 3.08 µM. In the assay with ZR-75-1 cells (Homo sapiens, ZR-75-1, 144 h), the EC50 was 7e-06 M.

Take `CN(C)c1ccc2cc(C(=O)NS(=O)(=O)c3ccc([N+](=O)[O-])c4cccnc34)oc2c1` [Example 92, 6-(Dimethylamino)-N-(5-nitroquinoline-8-sulfonyl)-1-benzofuran-2-carboxamide]: the IC50 was 0.394 µM in assay [1] (Homo sapiens, MVLN) and 0.151 µM in assay [2]. Further, the EC50 in the assay with ZR-75-1 cells (Homo sapiens, ZR-75-1, 144 h) amounted to 3.43e-07 M.

In the case of `CC(C)Nc1cccc(F)c1S(=O)(=O)NC(=O)c1cc2ccc(N(C)C)cc2o1` [Example 155], the IC50 was 1.93 µM in assay [1] (Homo sapiens, MVLN) and 0.932 µM in assay [2]. In addition, in the assay on ZR-75-1 cells (Homo sapiens, ZR-75-1, 144 h), the EC50 came to 7.62e-06 M.

For `COCCOc1ccc(Cl)c(S(=O)(=O)NC(=O)c2cc3ccc(N(C)C)cc3o2)c1` [Example 164], the IC50 in assay [1] (Homo sapiens, MVLN) is greater than 20 µM; in assay [2], 4.45 µM. Also, in the assay with ZR-75-1 cells (Homo sapiens, ZR-75-1, 144 h), the EC50 was greater than 2e-05 M.

As to `CC(c1ccc(Cl)cc1Cl)S(=O)(=O)NC(=O)c1cc2ccc(N(C)C)cc2o1` (racemic) [Example 55, N-[1-(2,4-Dichlorophenyl)ethanesulfonyl]-6-(dimethylamino)-1-benzofuran-2-carboxamide (rac)], in assay [2], the IC50 came out at 0.0864 µM.

For the compound `Cc1ccc(S(=O)(=O)NC(=O)c2cc3ccc(N(C)C)cc3o2)c(OC(F)F)c1` [Example 159], the IC50 in assay [1] (Homo sapiens, MVLN) came out at 0.519 µM; in assay [2] it was 0.233 µM. The EC50 in the assay with ZR-75-1 cells (Homo sapiens, ZR-75-1, 144 h) turned out to be 6.97e-07 M.

For `CN(C)c1ccc2cc(C(=O)NS(=O)(=O)c3ccccc3-c3ccccc3)oc2c1Br` [Example 50, N-([Biphenyl]-2-ylsulfonyl)-7-bromo-6-(dimethylamino)-1-benzofuran-2-carboxamide], the IC50 in assay [2] was determined as 4.23 µM.

As to `CCOC(=O)N1CCC(S(=O)(=O)NC(=O)c2cc3ccc(N(C)C)cc3o2)CC1` [Example 60, Ethyl-4-{[6-(dimethylamino)-1-benzofuran-2-carbonyl]sulfamoyl}piperidine-1-carboxylate], the IC50 in assay [2] came to 3.2 µM.

Regarding `CCOc1cc(F)ccc1S(=O)(=O)NC(=O)c1cc2ccc(N(C)C)cc2o1` [Example 171, 6-(Dimethylamino)-N-(2-ethoxy-4-fluoro-phenyl)sulfonyl-benzofuran-2-carboxamide], the IC50 in assay [1] (Homo sapiens, MVLN) was determined as 0.102 µM; in assay [2], 0.0949 µM.

With `Cc1ccc2cccc(S(=O)(=O)NC(=O)c3cc4cc(C#N)c(N(C)C)cc4o3)c2n1` [Example 209, 5-Cyano-6-(dimethylamino)-N-(2-methylquinoline-8-sulfonyl)-1-benzofuran-2-carboxamide], in assay [1] (Homo sapiens, MVLN), the IC50 was greater than 20 µM. In addition, the EC50 in the assay with ZR-75-1 cells (Homo sapiens, ZR-75-1, 144 h) came to 9.4e-06 M.

For `CCOc1ccc(Oc2ccccc2)cc1S(=O)(=O)NC(=O)c1cc2ccc(N(C)C)cc2o1` [Example 174, 6-(Dimethylamino)-N-(2-ethoxy-5-phenoxy-phenyl)sulfonyl-benzofuran-2-carboxamide], the IC50 worked out at 0.123 µM in assay [1] (Homo sapiens, MVLN) and 0.0118 µM in assay [2].

With `CN(C)c1ccc2cc(C(=O)NS(=O)(=O)c3cc(CO)ccc3OC(F)(F)F)oc2c1` [Example 161], the IC50 in assay [1] (Homo sapiens, MVLN) is greater than 20 µM; in assay [2], 6.77 µM. Moreover, the EC50 in the assay on ZR-75-1 cells (Homo sapiens, ZR-75-1, 144 h) is greater than 2e-05 M.

With `CN(C)c1ccc2cc(C(=O)NS(=O)(=O)c3c(F)cccc3OCC3CC3)oc2c1` [Example 160], the IC50 in assay [1] (Homo sapiens, MVLN) came to 0.741 µM; in assay [2] it was 0.324 µM. Further, the EC50 with ZR-75-1 cells (Homo sapiens, ZR-75-1, 144 h) amounted to 5.7e-06 M.

In the case of `CCOc1ccc(Br)cc1S(=O)(=O)NC(=O)c1cc2ccc(N(C)C)cc2o1` [Example 57, N-(5-Bromo-2-ethoxybenzene-1-sulfonyl)-6-(dimethylamino)-1-benzofuran-2-carboxamide], in assay [2], the IC50 was found to be 0.0382 µM.

Take `CCOc1ccncc1S(=O)(=O)NC(=O)c1cc2ccc(N(C)C)cc2o1` [Example 58, 6-(Dimethylamino)-N-(4-ethoxypyridine-3-sulfonyl)-1-benzofuran-2-carboxamide]: the IC50 in assay [2] came to 0.534 µM.

With `Cc1cccc(C2CCCC2)c1S(=O)(=O)NC(=O)c1cc2ccc(N(C)C)cc2o1` [Example 157], the IC50 in assay [1] (Homo sapiens, MVLN) was found to be 6.45 µM; in assay [2], 3.18 µM. For the same compound, the EC50 in the assay on ZR-75-1 cells (Homo sapiens, ZR-75-1, 144 h) was found to be 9.45e-06 M.

Regarding `CN(C)c1ccc2cc(C(=O)NS(=O)(=O)c3c(OCc4ccccc4)cccc3OC3CCC3)oc2c1` [Example 69, N-[2-(Benzyloxy)-6-(cycolbutyloxy)benzene-1-sulfonyl]-6-(dimethylamino)-1-benzofuran-2-carboxamide], the IC50 in assay [1] (Homo sapiens, MVLN) worked out at 0.0521 µM; in assay [2] it was 0.0045 µM. The EC50 in the assay with ZR-75-1 cells (Homo sapiens, ZR-75-1, 144 h) worked out at 3.84e-07 M.

As for `CN(C)c1ccc2cc(C(=O)NS(=O)(=O)c3ccccc3C(F)(F)F)oc2c1` [Example 54, 6-(Dimethylamino)-N-[2-(trifluoromethyl)benzene-1-sulfonyl]-1-benzofuran-2-carboxamide], the IC50 in assay [2] turned out to be 0.43 µM.

In the case of `CC(c1c(Cl)cccc1Cl)S(=O)(=O)NC(=O)c1cc2ccc(N(C)C)cc2o1` (racemic) [Example 56, N-[1-(2,6-Dichlorophenyl)ethanesulfonyl]-6-(dimethylamino)-1-benzofuran-2-carboxamide (rac)], in assay [2], the IC50 was 0.0676 µM.

As for `CC(Oc1cccc(OC2CCC2)c1S(=O)(=O)NC(=O)c1cc2ccc(N(C)C)cc2o1)C(F)(F)F` (racemic) [Example 84, N-[2-(Cyclobutyloxy)-6-{[(2S)-1,1,1-trifluoropropan-2-yl]oxy}benzene-1-sulfonyl]-6-(dimethylamino)-1-benzofuran-2-carboxamide (rac)], the IC50 is 0.226 µM in assay [1] (Homo sapiens, MVLN) and 0.0406 µM in assay [2].

As for `CCOc1c(F)cccc1S(=O)(=O)NC(=O)c1cc2ccc(N(C)C)cc2o1` [Example 169, 6-(Dimethylamino)-N-(2-ethoxy-3-fluoro-phenyl)sulfonyl-benzofuran-2-carboxamide], the IC50 in assay [1] (Homo sapiens, MVLN) worked out at 0.34 µM; in assay [2] it was 0.335 µM.

For the compound `CN(C)c1ccc2cc(C(=O)NS(=O)(=O)c3ccccc3Br)oc2c1` [Example 18, N-(2-Bromobenzene-1-sulfonyl)-6-(dimethylamino)-1-benzofuran-2-carboxamide], the IC50 in assay [2] came to 0.129 µM.

Turning to `CN(C)c1ccc2cc(C(=O)NS(=O)(=O)c3ccccc3-c3ccccc3)oc2c1` [Example 226], in assay [1], the IC50 was 0.18 µM. Also, in the assay with ZR-75-1 cells, the EC50 was 2.46e-07 M.

For `CN(C)c1ccc2cc(C(=O)NS(=O)(=O)c3ccccc3O)oc2c1` [Example 59, 6-(Dimethylamino)-N-(2-hydroxybenzene-1-sulfonyl)-1-benzofuran-2-carboxamide], the IC50 in assay [2] came out at 0.0861 µM.
